Paper PMC7855449 (European journal of medicinal chemistry, 2020)

Experiments:
[1] = system: patient-derived HGSOC tumor spheroids; test: Patient derived spheroid assay with Taxol; type: cell-based
[2] = Pharmacokinetic studies in mice; type: in vivo, female CD-1 mice; conditions: i.p. exposure corrected for PPB
[3] = reported for 1a at 10 mg/kg, oral; cited from earlier work

| unbound drug AUC0-7h obs [2] | SMILES | single agent toxicity [1] | AUC0-∞ [3] |
| --- | --- | --- | --- |
| 1.1 µM·h | CC(Sc1nc2nn(C3COC3)cc2c(=O)n1-c1ccccc1)c1ccccn1 (centres unmarked) [Compound 69, 2-(oxetan-3-yl)-5-phenyl-6-((1-(pyridin-2-yl)ethyl)thio)-2H-pyrazolo[3,4-d]pyrimidin-4(5H)-one] | no single agent toxicity | – |
| – | CS(=O)(=O)N1CCN(C(=O)c2cnc3ccc(F)cc3c2-c2ccc(C3(C#N)CC3)cc2)CC1 [Compound 1a] | – | 14.6 µM·h |
| 0.5 µM·h | CC(Sc1nc2nn(C3(C)COC3)cc2c(=O)n1-c1ccccc1)c1ccccc1 (centres unmarked) [Compound 74, 2-(3-methyloxetan-3-yl)-5-phenyl-6-((1-phenylethyl)thio)-2H-pyrazolo[3,4-d]pyrimidin-4(5H)-one] | – | – |
| 0.6 µM·h | CC(Sc1nc2nn(C3COC3)cc2c(=O)n1-c1ccccc1)c1ccccc1 (centres unmarked) [Compound 68, 2-(oxetan-3-yl)-5-phenyl-6-((1-phenylethyl)thio)-2H-pyrazolo[3,4-d]pyrimidin-4(5H)-one] | – | – |
